Measurements taken from PubChem BioAssay (NCI).
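Values below derive from 48-hour exposures of cells grown in 96-well plates, with endpoints linearly interpolated between the two concentrations bracketing the appropriate inhibition level. Here, GI50 denotes the concentration required for 50% inhibition of growth. TGI is the concentration that stops growth completely.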

What was measured:
Test in all cases: growth of human tumour cells (NCI), 48 h
[1] = test system: NCI-H226 lung
[2] = test system: TK-10 renal
[3] = test system: SK-MEL-5 melanoma
[4] = test system: CAKI-1 renal
[5] = test system: KM12 colon
[6] = test system: DU-145 prostate
[7] = test system: NCI-H460 lung
[8] = test system: SF-295 CNS
[9] = test system: NCI-H522 lung
[10] = test system: HS 578T breast
[11] = test system: SK-MEL-28 melanoma
[12] = test system: MDA-MB-435
[13] = test system: ACHN renal
[14] = test system: HOP-92 NSCLC
[15] = test system: HT29 colon
[16] = test system: NCI/ADR-RES ovarian
[17] = test system: OVCAR-3 ovarian
[18] = test system: SK-MEL-2 melanoma
[19] = test system: SW-620 colon
[20] = test system: A549 NSCLC
[21] = test system: RPMI-8226 leukemia
[22] = test system: HCT-116 colon
[23] = test system: SNB-19 CNS
[24] = test system: UO-31 renal
[25] = test system: MALME-3M melanoma
[26] = test system: HL-60(TB) leukemia
[27] = test system: COLO 205 colon
[28] = test system: MDA-MB-231 breast
[29] = test system: K-562 leukemia
[30] = test system: MCF7 breast
[31] = test system: SR leukemia
[32] = test system: IGROV1 ovarian
[33] = test system: EKVX NSCLC
[34] = test system: HOP-62 NSCLC
[35] = test system: UACC-257 melanoma
[36] = test system: SF-268 CNS
[37] = test system: 786-0 renal
[38] = test system: A498 renal
[39] = test system: BT-549 breast
[40] = test system: OVCAR-5 ovarian
[41] = test system: SNB-75 CNS
[42] = test system: UACC-62 melanoma
[43] = test system: LOX IMVI melanoma
[44] = test system: HCT-15 colon
[45] = test system: SK-OV-3 ovarian
[46] = test system: PC-3 prostate
[47] = test system: MOLT-4 leukemia
[48] = test system: OVCAR-4 ovarian
[49] = test system: U251 CNS
[50] = test system: T-47D breast
[51] = test system: SN12C renal
[52] = test system: CCRF-CEM leukemia
[53] = test system: M14 melanoma
[54] = test system: OVCAR-8 ovarian
[55] = test system: RXF 393 renal
[56] = test system: HCC-2998 colon
[57] = test system: SF-539 CNS
[58] = test system: NCI-H23 lung

N#Cc1c(-c2cccs2)cc(-c2cnccn2)nc1SCC(=O)N/N=C/c1ccccc1
GI50 [1]: 3.41 µM | TGI [1]: 12.9 µM | GI50 [2]: 4.51 µM | TGI [2]: 15.3 µM | GI50 [3]: 3.52 µM | TGI [3]: 13 µM | GI50 [4]: 3.66 µM | TGI [4]: 14.1 µM | GI50 [5]: 9.18 µM | TGI [5]: > 100 µM | GI50 [6]: 3.86 µM | TGI [6]: 12.7 µM | GI50 [7]: 3.93 µM | TGI [7]: 13.3 µM | GI50 [8]: 4.92 µM | TGI [8]: 17.1 µM | GI50 [9]: 10.3 µM | TGI [9]: 23.9 µM | GI50 [10]: 6.77 µM | TGI [10]: 31.8 µM | GI50 [11]: 4.06 µM | TGI [11]: 14.5 µM | GI50 [12]: 4.49 µM | TGI [12]: 16.2 µM | GI50 [13]: 6.14 µM | TGI [13]: 18.7 µM | GI50 [14]: 2.26 µM | TGI [14]: 8.49 µM | GI50 [15]: 4.98 µM | TGI [15]: 21.3 µM | GI50 [16]: 4.95 µM | TGI [16]: 16.7 µM | GI50 [17]: 3.88 µM | TGI [17]: 12.3 µM | GI50 [18]: 10.3 µM | TGI [18]: 23 µM | GI50 [19]: 4.97 µM | TGI [19]: 20.2 µM | GI50 [20]: 5.66 µM | TGI [20]: 20.2 µM | GI50 [21]: 3.46 µM | TGI [21]: 20.9 µM | GI50 [22]: 5.14 µM | TGI [22]: 17.3 µM | GI50 [23]: 7.21 µM | TGI [23]: 19.8 µM | GI50 [24]: 6.1 µM | TGI [24]: 19.6 µM | GI50 [25]: 3.33 µM | TGI [25]: 9.49 µM | GI50 [26]: > 100 µM | TGI [26]: > 100 µM | GI50 [27]: 11.3 µM | TGI [27]: > 100 µM | GI50 [28]: 4.23 µM | TGI [28]: 15.1 µM | GI50 [29]: 10.8 µM | TGI [29]: > 100 µM | GI50 [30]: 3.52 µM | TGI [30]: 14.8 µM | GI50 [31]: 11.2 µM | TGI [31]: 35.8 µM | GI50 [32]: 5.09 µM | TGI [32]: 17.3 µM | GI50 [33]: 6.48 µM | TGI [33]: 19.4 µM | GI50 [34]: 3.2 µM | TGI [34]: 11 µM | GI50 [35]: 15.1 µM | TGI [35]: 48.6 µM | GI50 [36]: 10.3 µM | TGI [36]: 24.6 µM | GI50 [37]: 3.64 µM | TGI [37]: 14.4 µM | GI50 [38]: 4.46 µM | TGI [38]: 17.3 µM | GI50 [39]: 8.31 µM | TGI [39]: 20.7 µM | GI50 [40]: 10.4 µM | TGI [40]: 23.3 µM | GI50 [41]: 3.3 µM | TGI [41]: 18.5 µM | GI50 [42]: 8.67 µM | TGI [42]: 21 µM | GI50 [43]: 2.8 µM | TGI [43]: 10 µM | GI50 [44]: 6.88 µM | TGI [44]: 27.4 µM | GI50 [45]: 14.7 µM | TGI [45]: 27.9 µM | GI50 [46]: 6.29 µM | TGI [46]: 19.2 µM | GI50 [47]: 47 µM | TGI [47]: > 100 µM | GI50 [48]: 3.61 µM | TGI [48]: 15.3 µM | GI50 [49]: 3.43 µM | TGI [49]: 12.1 µM | GI50 [50]: 2.94 µM | TGI [50]: 15.7 µM | GI50 [51]: 6.15 µM | TGI [51]: 18.8 µM | GI50 [52]: 49.9 µM | TGI [52]: > 100 µM | GI50 [53]: 4.98 µM | TGI [53]: 16.4 µM | GI50 [54]: 6.01 µM | TGI [54]: 19.4 µM | GI50 [55]: 2.5 µM | TGI [55]: 6.97 µM | GI50 [56]: 10.7 µM | TGI [56]: 25.1 µM | GI50 [57]: 6.64 µM | TGI [57]: 19.3 µM

CN(C)c1ccc(/C=N/Nc2nc(N/N=C/c3ccc(N(C)C)cc3)nc(N3CCCCC3)n2)cc1
GI50 [1]: 2.19 µM | TGI [1]: 5.64 µM | GI50 [2]: 2.54 µM | TGI [2]: 7.28 µM | GI50 [3]: 1.73 µM | TGI [3]: 3.15 µM | GI50 [4]: 2.08 µM | TGI [4]: 5.02 µM | GI50 [5]: 2.84 µM | TGI [5]: 8.49 µM | GI50 [6]: 3.92 µM | TGI [6]: > 100 µM | GI50 [7]: 3.21 µM | TGI [7]: > 100 µM | GI50 [8]: 1.96 µM | TGI [8]: 3.79 µM | GI50 [9]: 2.06 µM | TGI [9]: 4.56 µM | GI50 [10]: 2.09 µM | TGI [10]: 5.57 µM | GI50 [11]: 2 µM | TGI [11]: 4.35 µM | GI50 [13]: 2.68 µM | TGI [13]: 7.68 µM | GI50 [14]: 1.47 µM | TGI [14]: 3.25 µM | GI50 [15]: 1.76 µM | TGI [15]: 3.36 µM | GI50 [16]: 3.19 µM | TGI [16]: 17 µM | GI50 [17]: 2.28 µM | TGI [17]: 5.03 µM | GI50 [18]: 1.99 µM | TGI [18]: 3.72 µM | GI50 [19]: 3.17 µM | TGI [19]: > 100 µM | GI50 [20]: 2.99 µM | TGI [20]: > 100 µM | GI50 [21]: 1.92 µM | TGI [21]: 5.1 µM | GI50 [22]: 1.64 µM | TGI [22]: 3.75 µM | GI50 [23]: 3.33 µM | TGI [23]: > 100 µM | GI50 [24]: 1.72 µM | TGI [24]: 3.7 µM | GI50 [25]: 1.86 µM | TGI [25]: 3.4 µM | GI50 [26]: 2.2 µM | TGI [26]: 6.71 µM | GI50 [28]: 1.8 µM | TGI [28]: 3.4 µM | GI50 [29]: 0.895 µM | TGI [29]: > 100 µM | GI50 [30]: 2.86 µM | TGI [30]: > 100 µM | GI50 [31]: 0.369 µM | TGI [31]: > 100 µM | GI50 [32]: 2.96 µM | TGI [32]: > 100 µM | GI50 [33]: 3.13 µM | TGI [33]: > 100 µM | GI50 [34]: 2.19 µM | TGI [34]: 5.05 µM | GI50 [35]: 1.83 µM | TGI [35]: 3.67 µM | GI50 [37]: 1.7 µM | TGI [37]: 3.62 µM | GI50 [38]: 1.58 µM | TGI [38]: 3.51 µM | GI50 [39]: 15.5 µM | TGI [39]: 58.6 µM | GI50 [42]: 1.84 µM | TGI [42]: 3.78 µM | GI50 [43]: 1.61 µM | TGI [43]: 3.19 µM | GI50 [44]: 1.87 µM | TGI [44]: 4.62 µM | GI50 [58]: 3.49 µM | TGI [58]: > 100 µM | GI50 [45]: 2.17 µM | TGI [45]: 4.88 µM | GI50 [46]: 2.57 µM | TGI [46]: 7.91 µM | GI50 [47]: 2.87 µM | TGI [47]: > 100 µM | GI50 [48]: 5.03 µM | TGI [48]: > 100 µM | GI50 [49]: 2.88 µM | TGI [49]: 14.3 µM | GI50 [50]: 2.18 µM | TGI [50]: 5.54 µM | GI50 [52]: 1.21 µM | TGI [52]: > 100 µM | GI50 [54]: 3.21 µM | TGI [54]: > 100 µM | GI50 [55]: 2.12 µM | TGI [55]: 6.12 µM | GI50 [56]: 2.4 µM | TGI [56]: 6.67 µM | GI50 [57]: 1.99 µM | TGI [57]: 3.97 µM
